What was measured:
Pf rhomboid-1 = Pf rhomboid-1 cleavage of GFP-tagged Spitz co-expressed in COS cells (western blot); format: cell-based, Plasmodium falciparum; conditions: serum-free medium supplemented with inhibitor, substrate Spitz
Description: (§1) Plasmodium rhomboid activity was determined using published methods described in Urban et al Cell (2001) 107(2): 173-82 and WO02/093177. Briefly, Pf rhomboids-1 and -3 were co-expressed with GFP-tagged Spitz under control of a CMV promoter; as follows; COS cells were grown in DMEM medium (supplemented with 10% foetal calf serum), and transfected with FuGENE 6 Transfection Reagent (Roche). Cells were co-transfected in 35 mm culture wells with 25-250 ng of (a) rhomboid construct comprising the Pf-rhomboid-1 or -3 coding sequence inserted into the vector pcDNA 3.1+ (Invitrogen), and (b) substrate construct comprising the GFP-Spitz coding sequence inserted into pcDNA 3.1+ (Invitrogen). Empty plasmid was used to bring the total DNA to 1 μg per well. Construct (b) was transfected into COS cells in the absence of construct (a) as a control for endogenous cleavage of the substrate. 24-30 hours post-transfection, the medium was replaced with serum-free medium; this was harvested 24 hours later and cells were lysed in SDS-sample buffer. For some experiments, the serum-free medium was supplemented with the metalloprotease inhibitor batimastat (British Biotech) or ilomostat (Calbiochem) to minimize endogenous substrate cleavage in the assay. For inhibitor assays, a test compound may be included in the serum-free medium. […]

Pf rhomboid-3 = Pf rhomboid-3 cleavage of GFP-tagged Spitz co-expressed in COS cells (western blot); format: cell-based, Plasmodium falciparum; conditions: serum-free medium supplemented with inhibitor, substrate Spitz
Description: as §1

With CNC(=O)[C@H](Cc1ccccc1)NC(=O)[C@H](CC(C)C)[C@H](CSc1cccs1)C(=O)NO [batimastat] the “inhibition of Pf rhomboid-1 cleavage of Spitz” value (Pf rhomboid-1) was “not inhibited” and the “inhibition of Pf rhomboid-3 cleavage of Spitz” value (Pf rhomboid-3) was “not inhibited”.
